Molecular target: T1, TLR7 (Homo sapiens, UniProt Q9NYK1)
T1 sequence (Q9NYK1 27-1049): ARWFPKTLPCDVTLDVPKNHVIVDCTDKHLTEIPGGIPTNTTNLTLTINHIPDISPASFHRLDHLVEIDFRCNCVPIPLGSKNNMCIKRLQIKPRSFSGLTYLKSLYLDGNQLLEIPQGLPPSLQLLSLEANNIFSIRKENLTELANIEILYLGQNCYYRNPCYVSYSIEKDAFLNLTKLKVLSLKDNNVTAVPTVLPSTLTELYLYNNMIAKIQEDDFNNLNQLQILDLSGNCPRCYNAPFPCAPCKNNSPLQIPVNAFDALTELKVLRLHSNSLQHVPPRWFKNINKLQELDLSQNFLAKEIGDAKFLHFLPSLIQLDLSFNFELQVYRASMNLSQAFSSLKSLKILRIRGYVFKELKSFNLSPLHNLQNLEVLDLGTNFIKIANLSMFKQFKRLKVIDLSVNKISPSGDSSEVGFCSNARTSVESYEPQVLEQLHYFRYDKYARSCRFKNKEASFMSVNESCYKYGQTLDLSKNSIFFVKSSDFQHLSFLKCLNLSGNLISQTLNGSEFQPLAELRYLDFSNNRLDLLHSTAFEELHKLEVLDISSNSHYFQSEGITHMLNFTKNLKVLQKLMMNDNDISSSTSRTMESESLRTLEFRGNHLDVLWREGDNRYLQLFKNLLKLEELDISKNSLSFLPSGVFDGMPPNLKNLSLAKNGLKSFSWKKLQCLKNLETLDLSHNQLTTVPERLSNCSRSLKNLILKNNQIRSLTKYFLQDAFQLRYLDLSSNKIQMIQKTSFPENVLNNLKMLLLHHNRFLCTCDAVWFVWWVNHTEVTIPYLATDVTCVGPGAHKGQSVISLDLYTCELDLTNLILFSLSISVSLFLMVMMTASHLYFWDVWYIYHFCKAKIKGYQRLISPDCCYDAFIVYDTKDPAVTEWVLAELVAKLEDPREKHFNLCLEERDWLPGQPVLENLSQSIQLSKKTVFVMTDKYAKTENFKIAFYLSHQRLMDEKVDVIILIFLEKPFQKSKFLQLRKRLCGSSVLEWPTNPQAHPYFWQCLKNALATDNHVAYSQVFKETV
Experiment: Human TLR7 reporter gene agonistic activity assay
Type: cell-based
Design: host or cells: HEK293 (TLR7/NF-κB/SEAPorter)
Description: Compounds were dissolved in dimethyl sulfoxide. Before stimulation with compound, Human TLR7 reporter cell line (Novus Biological) was seeded in 96-well microtiter plate (AGC techno glass) at 5 × 10^4 cells/well in DMEM (GIBCO) with 10% fetal bovine serum (GIBCO), and 10 ug/ml Blastcidin S HCl (GIBCO) and incubated at 37 °C in 5% CO2. The plates were incubated over-night and then stimulated with various concentrations of compound and R848. The plates were then incubated an additional 20 ± 1 h at 37 °C in 5% CO2 and then the secreted embryonic alkaline phosphatase (SEAP) activity was measured as activation of human TLR7. The SEAP activity was evaluated as follows: pNPP (Invitrogen, USA) was added to the incubated sample (50 μl/well); after 15 min, 4 M sodium hydroxide solution (nacalai tesque, Japan) was added thereto (50 μl/well) to quench the reaction; and the absorbance of each sample was measured at 405 nm with microplate reader SpectraMax M4 (Molecular Devices, USA).

Compound | activation of human TLR7, reporter signal (compound 0.001 nM (as headed)) | activation of human TLR7, reporter signal (compound 0.003 nM (as headed)) | activation of human TLR7, reporter signal (compound 0.01 nM (as headed)) | activation of human TLR7, reporter signal (compound 0.03 nM (as headed)) | activation of human TLR7, reporter signal (compound 0.1 nM (as headed)) | activation of human TLR7, reporter signal (compound 0.3 nM (as headed)) | activation of human TLR7, reporter signal (compound 1 nM (as headed)) | activation of human TLR7, reporter signal (compound 3 nM (as headed)) | activation of human TLR7, reporter signal (compound 10 nM (as headed)) | activation of human TLR7, reporter signal (compound 30 nM (as headed)) | activation of human TLR7, reporter signal (compound 100 nM (as headed)) | activation of TLR7
CCOc1nc(N)c2nc(-c3cncc(F)c3)n(Cc3ccc(CN4C[C@@H]5C[C@H]4CN5C)cc3)c2n1 [Cpd-6] | -0.07495 | -0.076 | -0.1139 | -0.0956 | -0.074 | -0.01435 | -0.0641 | -0.07475 | -0.1166 | -0.1098 | -0.12 | 
CCCCOc1nc(N)c2nc(-c3cccnc3)n(Cc3ccccc3)c2n1 [Cpd-5] | -0.0519 | -0.05305 | -0.08885 | -0.06455 | -0.0507 | -0.02125 | -0.05725 | -0.0655 | -0.0852 | -0.0846 | -0.0973 | without causing any inhibition of either TLR8 or TLR9 and activation of TLR7
CCOc1nc(C)c2nc(-c3cncc(F)c3)n(Cc3ccc(CN4C[C@@H]5C[C@H]4CN5C)cc3)c2n1 [Cpd-7] | -0.0428 | -0.04595 | -0.1002 | -0.06165 | -0.0434 | -0.02775 | -0.0578 | -0.0693 | -0.1036 | -0.0961 | -0.09835 | 
